Measurements from US7563825B1, “Modulation of beta-catenin coactivator interactions to effect stem cell growth or differentiation” (Choongwae Pharma Corporation, priority 2005, dated 2009).
“Also recorded” adds a separate entry of the source.

Tests used:
C2C12 myoblasts = assay: Differentiation of C2C12 myoblasts; type: cell-based; conditions: 10 μM ICG-001, compared to differentiation medium or growth medium (FIGS. 3, 4)
Protocol: FIG. 4 illustrates that differentiation of C2C12 myeloblasts is induced by 10 μM ICG-001 as compared to differentiation medium.
(§1) From our chemogenomic studies with the small molecule inhibitor of the β-catenin/CBP interaction and additional gene expression profiling, we have developed a model that describes how differential coactivator usage in Wnt signaling controls proliferation vs. differentiation. The critical feature of this model is that the CBP arm (FIG. 2, left side) of the pathway is essential for proliferation without differentiation, for example in cancer or stem cells, whereas the p300 arm (FIG. 2, right side) is critical for differentiation, with limited proliferation.

3T3-L1 preadipocytes = assay: Differentiation of 3T3-L1 preadipocytes; type: cell-based
Excerpt: as §1

β-catenin/CBP = β-catenin/CBP (Homo sapiens, UniProt Q92793); conditions: CBP arm of the Wnt pathway; cited from earlier work
cancer cells = conditions: cited from earlier work

Chain of β-catenin/CBP (Q92793 whole entry): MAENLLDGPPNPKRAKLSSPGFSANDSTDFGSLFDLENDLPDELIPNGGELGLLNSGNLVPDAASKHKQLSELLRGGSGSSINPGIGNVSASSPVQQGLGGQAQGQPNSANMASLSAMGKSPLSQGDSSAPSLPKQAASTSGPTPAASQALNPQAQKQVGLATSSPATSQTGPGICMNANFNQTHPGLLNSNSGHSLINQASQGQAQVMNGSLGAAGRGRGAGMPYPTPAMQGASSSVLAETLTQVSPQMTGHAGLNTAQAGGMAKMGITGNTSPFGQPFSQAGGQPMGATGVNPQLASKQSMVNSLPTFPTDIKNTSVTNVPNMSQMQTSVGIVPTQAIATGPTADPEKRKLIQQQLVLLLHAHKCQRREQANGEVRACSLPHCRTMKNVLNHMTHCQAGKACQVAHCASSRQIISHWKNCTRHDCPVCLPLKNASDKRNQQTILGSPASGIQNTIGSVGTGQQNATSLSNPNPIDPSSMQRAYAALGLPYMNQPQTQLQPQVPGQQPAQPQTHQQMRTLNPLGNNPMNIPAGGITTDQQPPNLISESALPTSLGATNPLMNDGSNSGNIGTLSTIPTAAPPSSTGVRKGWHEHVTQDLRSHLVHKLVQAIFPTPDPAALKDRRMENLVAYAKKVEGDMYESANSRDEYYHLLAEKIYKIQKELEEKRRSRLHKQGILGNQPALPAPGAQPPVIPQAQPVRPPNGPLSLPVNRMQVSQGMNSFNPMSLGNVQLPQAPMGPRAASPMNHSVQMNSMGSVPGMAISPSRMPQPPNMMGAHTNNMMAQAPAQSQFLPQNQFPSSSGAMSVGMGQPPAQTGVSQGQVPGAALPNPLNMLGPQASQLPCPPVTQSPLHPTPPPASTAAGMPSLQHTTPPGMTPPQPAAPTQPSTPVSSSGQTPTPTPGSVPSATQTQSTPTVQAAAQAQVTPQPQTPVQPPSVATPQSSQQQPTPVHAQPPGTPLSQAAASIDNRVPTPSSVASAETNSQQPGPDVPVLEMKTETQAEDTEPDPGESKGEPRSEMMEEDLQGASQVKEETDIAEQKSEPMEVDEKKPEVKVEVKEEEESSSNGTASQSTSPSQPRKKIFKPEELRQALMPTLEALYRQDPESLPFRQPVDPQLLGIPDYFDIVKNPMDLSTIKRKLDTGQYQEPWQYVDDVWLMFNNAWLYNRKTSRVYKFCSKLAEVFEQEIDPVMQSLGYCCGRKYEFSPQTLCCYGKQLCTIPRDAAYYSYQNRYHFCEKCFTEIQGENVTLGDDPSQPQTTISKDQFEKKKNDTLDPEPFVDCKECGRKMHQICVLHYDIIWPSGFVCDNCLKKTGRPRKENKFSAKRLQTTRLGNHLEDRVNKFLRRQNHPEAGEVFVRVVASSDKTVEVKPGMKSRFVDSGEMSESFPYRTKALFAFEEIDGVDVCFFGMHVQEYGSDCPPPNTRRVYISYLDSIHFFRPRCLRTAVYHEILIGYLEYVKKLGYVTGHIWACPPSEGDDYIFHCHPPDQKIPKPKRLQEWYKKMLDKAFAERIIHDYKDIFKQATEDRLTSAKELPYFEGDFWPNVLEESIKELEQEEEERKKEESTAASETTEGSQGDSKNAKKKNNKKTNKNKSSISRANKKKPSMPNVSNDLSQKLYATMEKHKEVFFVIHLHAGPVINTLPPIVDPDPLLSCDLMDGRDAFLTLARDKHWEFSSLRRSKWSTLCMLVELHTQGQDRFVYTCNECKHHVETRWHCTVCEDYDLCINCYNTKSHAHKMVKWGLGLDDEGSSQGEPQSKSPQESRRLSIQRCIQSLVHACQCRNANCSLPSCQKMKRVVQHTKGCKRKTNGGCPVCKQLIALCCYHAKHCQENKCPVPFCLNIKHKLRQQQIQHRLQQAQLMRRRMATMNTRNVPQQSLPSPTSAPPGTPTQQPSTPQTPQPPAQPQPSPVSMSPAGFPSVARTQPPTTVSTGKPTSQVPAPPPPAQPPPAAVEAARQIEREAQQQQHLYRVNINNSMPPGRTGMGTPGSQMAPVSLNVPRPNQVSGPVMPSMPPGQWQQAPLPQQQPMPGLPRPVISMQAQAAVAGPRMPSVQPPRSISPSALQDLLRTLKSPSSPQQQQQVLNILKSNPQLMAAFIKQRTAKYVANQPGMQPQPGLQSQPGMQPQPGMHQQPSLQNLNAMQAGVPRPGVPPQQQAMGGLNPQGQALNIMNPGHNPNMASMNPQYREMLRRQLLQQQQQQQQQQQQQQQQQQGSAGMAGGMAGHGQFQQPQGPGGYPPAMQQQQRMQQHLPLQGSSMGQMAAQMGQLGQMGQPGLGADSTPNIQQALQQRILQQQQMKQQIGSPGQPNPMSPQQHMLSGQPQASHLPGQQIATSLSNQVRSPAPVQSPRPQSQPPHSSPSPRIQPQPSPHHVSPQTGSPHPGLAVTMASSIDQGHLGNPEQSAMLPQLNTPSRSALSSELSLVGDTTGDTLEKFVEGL

Question: Which results are given for `O=C1[C@H](Cc2ccc(O)cc2)N2C(=O)CCN(C(=O)NCc3ccccc3)[C@H]2CN1Cc1cccc2ccccc12` [ICG-001]?
Answer: differentiation of C2C12 myeloblasts (myoblasts) (C2C12 myoblasts): induces the differentiation; also recorded: induced; also recorded: inducing the differentiation; differentiation of non-tumorigenic precursor cells, 3T3-L1 preadipocytes (3T3-L1 preadipocytes): inducing the differentiation; inhibition of β-catenin/CBP dependent transcription (β-catenin/CBP): specifically inhibits; programmed cell death in cancer cells (cancer cells): selectively inducing programmed cell death
